Each structure is given as a SMILES string.

T1 sequence (Q99705 whole entry): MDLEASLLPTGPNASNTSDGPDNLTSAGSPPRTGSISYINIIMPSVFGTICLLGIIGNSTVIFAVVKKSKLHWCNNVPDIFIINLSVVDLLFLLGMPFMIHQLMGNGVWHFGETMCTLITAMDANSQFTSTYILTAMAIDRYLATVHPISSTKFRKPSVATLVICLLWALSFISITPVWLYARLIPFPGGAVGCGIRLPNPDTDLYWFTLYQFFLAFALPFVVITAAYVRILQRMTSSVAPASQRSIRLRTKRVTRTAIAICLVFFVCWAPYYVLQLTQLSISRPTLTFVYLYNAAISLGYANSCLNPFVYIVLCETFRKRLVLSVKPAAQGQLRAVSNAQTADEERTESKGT

The first test concerns the target T1, Melanin Concentrating Hormone Receptor 1 (MCHR1) (Homo sapiens, UniProt Q99705).
T1 construct: expressed in transfected cells
Put plainly: MCHR1 Receptor Activation Assay (GTPγ^35S). The format is biochemical. The conditions noted are these: read-out: GTPγ^35S IC50.
On to `CNCc1ccc(OC2CN(C(=O)c3nnc(-c4ccc(OC)cc4)o3)C2)c(C)c1` [Example 54, (5-(4-Methoxyphenyl)-1,3,4-oxadiazol-2-yl)(3-(2-methyl-4-((methylamino)methyl)phenoxy)azetidin-1-yl)methanone], for which the concentration for half-maximal inhibition (IC50) was found to be 31 nM.

`CCC1(O)CN(Cc2ccc(OC3CN(C(=O)c4nnc(-c5ccccc5)o4)C3)cc2)C1` [Example 71, (3-(4-((3-Ethyl-3-hydroxyazetidin-1-yl)methyl)phenoxy)azetidin-1-yl)(5-phenyl-1,3,4-oxadiazol-2-yl)methanone]: the IC50 is 23 nM.

In the case of `Cc1ccc(-c2nnc(C(=O)N3CC(Oc4ccc(CN5CCN(C)CC5)cc4C)C3)o2)cc1` [Example 11, (3-(2-Methyl-4-((4-methylpiperazin-1-yl)methyl)phenoxy)azetidin-1-yl)(5-p-tolyl-1,3,4-oxadiazol-2-yl)methanone], the IC50 came out at 51 nM.

`CNCc1ccc(OC2CN(C(=O)c3nnc(-c4ccccc4)o3)C2)cc1C` [Example 53, (3-(3-Methyl-4-((methylamino)methyl)phenoxy)azetidin-1-yl)(5-phenyl-1,3,4-oxadiazol-2-yl)methanone]: the IC50 worked out at 28 nM.

In the case of `O=C(c1nnc(-c2ccccc2)o1)N1CC(Sc2ccc(CN3CC(CO)C3)cc2)C1` [Example 67, (3-(4-((3-(Hydroxymethyl)azetidin-1-yl)methyl)phenylthio)azetidin-1-yl)(5-phenyl-1,3,4-oxadiazol-2-yl)methanone], the half-inhibitory concentration (IC50) was found to be 23 nM.

On to `COc1ccc(-c2nnc(C(=O)N3CC(Oc4ccc(CN5CC(C)(O)C5)cc4)C3)o2)cc1` [Example 76, (3-(4-((3-Hydroxy-3-methylazetidin-1-yl)methyl)phenoxy)azetidin-1-yl)(5-(4-methoxyphenyl)-1,3,4-oxadiazol-2-yl)methanone], for which the IC50 was 23 nM.

Turning to `Cc1ccc(-c2nnc(C(=O)N3CC(Oc4ccc(CN5CCOCC5)cc4C)C3)o2)cc1` [Example 13, (3-(2-Methyl-4-(morpholinomethyl)phenoxy)azetidin-1-yl)(5-p-tolyl-1,3,4-oxadiazol-2-yl)methanone], the IC50 turned out to be 29 nM.

Regarding `CSc1ccc(-c2nnc(C(=O)N3CC(Oc4ccc(CN(C)C)cc4)C3)o2)cc1` [Example 34, (3-(4-((Dimethylamino)methyl)phenoxy)azetidin-1-yl)(5-(4-(methylthio)phenyl)-1,3,4-oxadiazol-2-yl)methanone], the IC50 was determined as 18 nM.

For the compound `COc1ccc(-c2nnc(C(=O)N3CC(Oc4ccc(CN5CCC(C)(CO)CC5)c(C)c4)C3)o2)cc1` [Example 82, (3-(4-((4-(Hydroxymethyl)-4-methylpiperidin-1-yl)methyl)-3-methylphenoxy)azetidin-1-yl)(5-(4-methoxyphenyl)-1,3,4-oxadiazol-2-yl)methanone], the half-maximal inhibitory concentration (IC50) worked out at 22 nM.

As to `O=C(c1nnc(-c2ccc(Cl)cc2)o1)N1CC(Oc2ccc(CN3CCCC3)cc2)C1` [Example 1, (5-(4-Chlorophenyl)-1,3,4-oxadiazol-2-yl)(3-(4-(pyrrolidin-1-ylmethyl)phenoxy)azetidin-1-yl)methanone], the concentration for half-maximal inhibition (IC50) amounted to 7 nM.

With `Cc1cc(CN2CCN(C)CC2)ccc1OC1CN(C(=O)c2nnc(-c3ccccc3)o2)C1` [Example 9, (3-(2-Methyl-4-((4-methylpiperazin-1-yl)methyl)phenoxy)azetidin-1-yl)(5-phenyl-1,3,4-oxadiazol-2-yl)methanone], the IC50 was found to be 44 nM.

`COc1ccc(-c2nnc(C(=O)N3CC(Oc4ccc(CN5CC(C)(O)C5)c(C)c4)C3)o2)cc1` [Example 80, (3-(4-((3-Hydroxy-3-methylazetidin-1-yl)methyl)-3-methylphenoxy)azetidin-1-yl)(5-(4-methoxyphenyl)-1,3,4-oxadiazol-2-yl)methanone]: the half-inhibitory concentration (IC50) was found to be 23 nM.

The same test, now with this note: when tested in the above referenced assays (MCH binding assay; MCHR1 receptor activation assay); read-out: IC50 value.
Consider `Cc1cc(OC2CN(C(=O)c3nnc(-c4ccccc4)o3)C2)ccc1CN(C1CC1)C1CC1` [[3-[4-[(dicyclopropylamino)methyl]-3-methyl-phenoxy]azetidin-1-yl]-(5-phenyl-1,3,4-oxadiazol-2-yl)methanone], for which the IC50 is not below 100 nM.

A word on the IC50: it is the concentration that inhibits the measured activity by half.

These data come from patent publication US8546375B2, “(3-(4-(aminomethyl)phenoxy or phenylthio)azetidin-1-yl)(5-phenyl-1,3,4-oxadiazol-2-yl)methanone compounds” (AstraZeneca AB, priority 2010, dated 2013).
